The text below walks through data of ChEMBL document CHEMBL1177737, “Bioactive 1,4-dihydroxy-5-phenyl-2-pyridinone alkaloids from Septoria pistaciarum” (J Nat Prod, 2010).

Values after ≈ are worked out from the molar mass of the structure shown. Active and inactive are the calls of the source.

Series [1] deals with Plasmodium falciparum. The experiment in a line: Antiplasmodial activity against chloroquine-sensitive Plasmodium falciparum D6 after 72 hrs by LDH assay. The series is classed as functional, organism-based.
The subject of series [2] is Plasmodium falciparum. The experiment in a line: Antiplasmodial activity against chloroquine-resistant Plasmodium falciparum W2 after 72 hrs by LDH assay. The series is classed as functional, organism-based.
The subject of series [3] is Vero. The experiment in a line: Cytotoxicity against african green monkey Vero cell after 48 hrs by Neutral Red dye. The class given is cell-based, Chlorocebus sabaeus.
For series [4], the system named is Candida albicans. The series is described as follows: Antimicrobial activity against Candida albicans ATCC 90028 by CLSI method. The class given is functional, organism-based.
In series [5] the test system is Aspergillus fumigatus. The series is described as follows: Antimicrobial activity against Aspergillus fumigatus ATCC 90906 by CLSI method. The class given is functional, organism-based.
A short description of series [6]: Selectivity index, ratio of IC50 for african green monkey (Cercopithecus aethiops) Vero cells to IC50 for chloroquine-sensitive Plasmodium falciparum D6. The class given is toxicity, cell-based. Particulars: read-out: Ratio IC50.
Series [7] in a line: Selectivity index, ratio of IC50 for african green monkey (Cercopithecus aethiops) Vero cells to IC50 for chloroquine-resistant Plasmodium falciparum W2. The series is classed as toxicity, cell-based. Particulars: read-out: Ratio IC50.
Series [8] concerns Staphylococcus aureus. The experiment in a line: Antimicrobial activity against Staphylococcus aureus ATCC 29213 by CLSI method. The class given is functional, organism-based.
The test system of series [9] is Staphylococcus aureus. The series is described as follows: Antimicrobial activity against Staphylococcus aureus ATCC 29213 at 20 ug/ml by CLSI method. The class given is functional, organism-based.
Series [10] relates to Staphylococcus aureus. The experiment in a line: Antimicrobial activity against methicillin-resistant Staphylococcus aureus ATCC 33591 at 20 ug/ml by CLSI method. The series is classed as functional, organism-based.
Series [11] deals with SK-MEL. The experiment in a line: Cytotoxicity against human SK-MEL cells after 48 hrs by Neutral Red dye. The class given is functional, cell-based.
In series [12] the test system is KB. The experiment in a line: Cytotoxicity against human KB cells after 48 hrs by Neutral Red dye. The series is classed as functional, cell-based.
Series [13] has as its system BT-549. The experiment in a line: Cytotoxicity against human BT549 cells after 48 hrs by Neutral Red dye. The series is classed as functional, cell-based. Particulars: BT-549, 48 h.
The subject of series [14] is SK-OV-3. The experiment in a line: Cytotoxicity against human SKOV3 cells after 48 hrs by Neutral Red dye. The series is classed as functional, cell-based. To be noted: SK-OV-3, 48 h.
Series [15] in a line: Cytotoxicity against pig LLC-PK11 cells after 48 hrs by Neutral Red dye. The series is classed as cell-based. Particulars: Sus scrofa, LLC-PK11, 48 h.
Series [16] has as its system Staphylococcus aureus. The experiment in a line: Antimicrobial activity against methicillin-resistant Staphylococcus aureus ATCC 33591 by CLSI method. The class given is functional, organism-based.
Series [17] has as its system Candida albicans. The experiment in a line: Antimicrobial activity against Candida albicans ATCC 90028 at 20 ug/ml by CLSI method. The class given is functional, organism-based.
In series [18] the test system is Aspergillus fumigatus. The series is described as follows: Antimicrobial activity against Aspergillus fumigatus ATCC 90906 at 20 ug/ml by CLSI method. The class given is functional, organism-based.
Series [19] concerns SK-MEL. The series is described as follows: Cytotoxicity against human SK-MEL cells at 10 ug/ml after 48 hrs by Neutral Red dye. The class given is functional, cell-based.
The subject of series [20] is KB. The experiment in a line: Cytotoxicity against human KB cells at 10 ug/ml after 48 hrs by Neutral Red dye. The series is classed as functional, cell-based.
The test system of series [21] is BT-549. The experiment in a line: Cytotoxicity against human BT549 cells at 10 ug/ml after 48 hrs by Neutral Red dye. The series is classed as functional, cell-based.
Series [22] concerns SK-OV-3. The series is described as follows: Cytotoxicity against human SKOV3 cells at 10 ug/ml after 48 hrs by Neutral Red dye. The class given is functional, cell-based.
A short description of series [23]: Cytotoxicity against pig LLC-PK11 cells at 10 ug/ml after 48 hrs by Neutral Red dye. The class given is cell-based, Sus scrofa.
Series [24] concerns Vero. The experiment in a line: Cytotoxicity against african green monkey Vero cell at 10 ug/ml after 48 hrs by Neutral Red dye. The series is classed as cell-based, Chlorocebus sabaeus.
[25] abbreviates: Chlorocebus sabaeus, Vero, 48 h, read-out: IC50.

Broadly, the IC50 is the concentration needed to halve the response being measured. Regarding `COn1cc(-c2ccccc2)c(O)c([C@@H]2O[C@H]([C@H](C)CCO)[C@@H](C)C[C@H]2C)c1=O`, the IC50 entry with Plasmodium falciparum [1] is reported as “Not Active”; in the series on Plasmodium falciparum [2], “Not Active”; with Vero [3] (vero) it was “Non-toxic”.

On to `COn1cc(-c2ccccc2)c(O)c([C@@H]2O[C@H]([C@H](C)CCOC(C)=O)[C@@H](C)C[C@H]2C)c1=O`, for which the IC50 result in the series on Plasmodium falciparum [1] is “Not Active”; with Plasmodium falciparum [2], “Not Active”; in the series with Vero [3] (vero), “Non-toxic”.

One may read the MIC as the smallest concentration in the dilution series that meets the test's criterion for growth inhibition. Consider `C[C@@H]1[C@H](O)[C@@H](C)/C=C/C=C/C=C/C=C/C=C/C=C/C=C/[C@H](O[C@@H]2O[C@H](C)[C@@H](O)[C@H](N)[C@@H]2O)C[C@@H]2O[C@](O)(C[C@@H](O)C[C@@H](O)[C@H](O)CC[C@@H](O)C[C@@H](O)CC(=O)O[C@H]1C)C[C@H](O)[C@H]2C(=O)O` [AMPHOTERICIN B], for which, in the series on Candida albicans [4], it took 0.42 µg/mL (≈ 0.455 µM) to reach half-maximal inhibition (IC50) and the MIC is 2.5 µg/mL (≈ 2.71 µM). In addition, in the series with Aspergillus fumigatus [5], half-maximal inhibition (IC50) was put at 1.16 µg/mL (≈ 1.26 µM) and the lowest concentration to inhibit growth (MIC) was 2.5 µg/mL (≈ 2.71 µM).

Consider `CC[C@@H](C)[C@H]1O[C@@H](c2c(O)c(-c3ccccc3)cn(O)c2=O)[C@H](C)C[C@@H]1C` [SEPTORIAMYCIN A], for which the IC50 in the series on Vero [3] (setting [25]) was 1.3 µg/mL (≈ 3.5 µM); in the series with Candida albicans [4] it was 12.1 µg/mL (≈ 32.5 µM); in the series with Aspergillus fumigatus [5] it was 8.76 µg/mL (≈ 23.6 µM); with Staphylococcus aureus [8], “Not Active”; with Staphylococcus aureus [9], “Not Active”; with Staphylococcus aureus [10], “Not Active”. In addition, the IC50 stood at 1.5 µg/mL (≈ 4.04 µM) with SK-MEL [11]; 5 µg/mL (≈ 13.5 µM) in the series on KB [12]; 1.65 µg/mL (≈ 4.44 µM) with BT-549 [13]; 2.6 µg/mL (≈ 7 µM) in the series with SK-OV-3 [14]; 1.65 µg/mL (≈ 4.44 µM) in [15]. For the same compound, the selectivity ratio in series [6] was found to be 3.9; in series [7], 6.5. Moreover, the MIC entry with Staphylococcus aureus [8], in the series with Staphylococcus aureus [9] and in the series with Staphylococcus aureus [10] was “inactive” each time.

Take `CC[C@@H](C)[C@H]1O[C@@H](c2c(O)c(-c3ccccc3)cn(OC)c2=O)[C@H](C)C[C@@H]1C`: the IC50 result in the series on Plasmodium falciparum [1] was “Not Active”; in the series with Plasmodium falciparum [2], “Not Active”; in the series with Vero [3] (vero), “Non-toxic”; in the series on Staphylococcus aureus [8] (Staphylococcus aureus, ATCC 29213, read-out: IC50) it was 2.79 µg/mL (≈ 7.24 µM); in the series with Staphylococcus aureus [16], 2.99 µg/mL (≈ 7.76 µM); with Candida albicans [17] it was “Not Active”. Further, the IC50 result (with Aspergillus fumigatus [18]; in the series with SK-MEL [19]; with KB [20]; in the series with BT-549 [21]; in the series on SK-OV-3 [22]; in [23]) was “Not Active” throughout. For the same compound, the concentration for half-maximal inhibition (IC50) entry with Vero [24] is on record as “Not Active”. Moreover, the MIC worked out at 5 µg/mL (≈ 13 µM) in the series on Staphylococcus aureus [8] (Staphylococcus aureus, ATCC 29213) and 5 µg/mL (≈ 13 µM) against Staphylococcus aureus [16]. Also, the MIC result with Candida albicans [17] and in the series on Aspergillus fumigatus [18] was “inactive” each time.

For `COc1cccc2c1C(=O)c1c(O)c3c(c(O)c1C2=O)C[C@@](O)(C(=O)CO)C[C@@H]3O[C@H]1C[C@H](N)[C@H](O)[C@H](C)O1` [DOXORUBICIN], the IC50 is > 5 µg/mL in the series with Vero [3] (setting [25]), 1.35 µg/mL (≈ 2.48 µM) with KB [12], 0.8 µg/mL (≈ 1.47 µM) in the series with BT-549 [13] and 1.2 µg/mL (≈ 2.21 µM) in the series on SK-OV-3 [14].

`CCN(CC)CCCC(C)Nc1ccnc2cc(Cl)ccc12` (centres undefined) [CHLOROQUINE]: the half-inhibitory concentration (IC50) entry with Vero [3] (vero) is on record as “Non-toxic”.

On to `C[C@@H]1CC[C@H]2[C@@H](C)C(=O)O[C@@H]3O[C@@]4(C)CC[C@@H]1[C@]32OO4` [ARTEMISININ], for which the IC50 result with Vero [3] (vero) was “Non-toxic”.
